Source: PMC3480348, “Structure and Activity Analysis of Inauhzin Analogs as Novel Antitumor Compounds That Induce p53 and Inhibit Cell Growth” (PLoS ONE, 2012)
Entries after “also recorded” stand apart in the source; their conditions may differ. Like-named read-outs stand apart in the source and are kept apart here. One block for each molecule: values may come before it.

What was measured:
[1] = system: p53 level in H460 and HCT116^+/+ cells; assay: p53 induction by immunoblotting (IB), statement does not separate the cell lines; format: cell-based, human; conditions: 18 hrs, 0.5, 2, 10 µM
Excerpt: (A–B) Initial Inauhzin analogs were purchased and tested the activity on H460 and HCT116^+/+ by immunoblotting (IB). […]

[2] = system: p53 level in HCT116^+/+ cells; assay: p53 induction by immunoblotting (IB) in HCT116^+/+ cells; format: cell-based, human; conditions: 2 µM, 18 hrs; IB normalized to GAPDH, compared to 2 µM INZ
Description: (§1) EC90 values were calculated from the EC50 and Hill slope by a web-based calculator: http://www.graphpad.com/quickcalcs/Ecanything1.cfm.

p53 level in H460 cells = assay: p53 induction by immunoblotting (IB) in H460 cells; format: cell-based, human; conditions: 2 µM, 18 hrs; IB normalized to GAPDH, compared to 2 µM INZ
HCT116^−/− cells [3] = assay: 3-day WST-8 cell growth inhibition assay, HCT116^−/− (p53 null); format: cell-based, human; conditions: for EC50: Homo sapiens, HCT-116, 72 h WST-8, average of triplicates, highest concentration 100 µM; for effect on p53-null HCT116^−/− cells compared with p53-containing cells: in vitro cytotoxicity
H460 cells [4] = assay: 3-day WST-8 cell growth inhibition assay, H460; format: cell-based, human; conditions: for EC90: read-out: EC90, cell growth inhibition, H460 p53 wild type; for EC90 fold lower than that for INZ, H460: statement covers H460 and HCT116^+/+ together
Description: as §1

H460 cells [5] = assay: 3-day WST-8 cell growth inhibition assay, H460; format: cell-based, human; conditions: for EC50: Homo sapiens, NCI-H460, 72 h WST-8, average of triplicates, highest concentration 50 µM, read-out: EC50, cell growth inhibition, H460 p53 wild type
H1299 cells = assay: 3-day WST-8 cell growth inhibition assay, H1299 (p53 null); format: cell-based, human; conditions: for EC50 / EC90: Homo sapiens; for EC50: NCI-H1299, 72 h WST-8, average of triplicates, highest concentration 100 µM; for effect on p53-null H1299 cells compared with p53-containing cells: in vitro cytotoxicity; for EC50 on H1299 fold higher than on H460 cells: p53-null H1299 vs p53-containing H460; for EC90: NCI-H1299, calculated from EC50 and Hill slope
Description: as §1

HCT116^+/+ cells = assay: 3-day WST-8 cell growth inhibition assay, HCT116^+/+; format: cell-based, human; conditions: for EC50: HCT-116, 72 h WST-8, average of triplicates, highest concentration 50 µM, read-out: EC50, cell growth inhibition, HCT116^+/+ p53 wild type; for EC90 fold lower than that for INZ, HCT116^+/+: statement covers H460 and HCT116^+/+ together; for EC90: read-out: EC90, cell growth inhibition, HCT116^+/+ p53 wild type
Description: as §1

HCT116^−/− cells [6] = assay: 3-day WST-8 cell growth inhibition assay, HCT116^−/− (p53 null); format: cell-based; conditions: Homo sapiens, HCT-116, calculated from EC50 and Hill slope
Description: as §1

[7] = Homo sapiens, NCI-H460, calculated from EC50 and Hill slope (GraphPad web calculator)
[8] = Homo sapiens, HCT-116, calculated from EC50 and Hill slope

EC50 (HCT116^−/− cells [3]): 28.2 ± 1.4 µM
EC90 (H460 cells [4]; [7]): 9.6 µM
EC50 (H460 cells [5]): 4.3 ± 0.3 µM
EC90 (H1299 cells): 82.3 µM
EC50 (H1299 cells): 12.6 ± 1.4 µM
EC90 (HCT116^−/− cells [6]): > 1000 µM
EC90 (HCT116^+/+ cells; [8]): 21.9 µM
EC50 (HCT116^+/+ cells; Homo sapiens): 2100 ± 1000 nM
SMILES: CCC(Sc1nnc2c3ccccc3n(C(=O)c3ccccc3)c2n1)C(=O)N1c2ccccc2Sc2ccccc21 (stereo not shown) [Compound 21, 2-((5-benzoyl-5H-[1,2,4]triazino[5,6-b]indol-3-yl)thio)-1-(10H-phenothiazin-10-yl)butan-1-one]
effect on p53-null HCT116^−/− cells compared with p53-containing cells (HCT116^−/− cells [3]): much less effective
effect on p53-null H1299 cells compared with p53-containing cells (H1299 cells): much less effective

EC90 (H460 cells [4]; [7]): 20.5 µM
EC50 (H460 cells [5]): 4.9 ± 1 µM
SMILES: CCC(Sc1nnc2c3ccccc3n(C(=O)c3cccnc3)c2n1)C(=O)N1c2ccccc2Sc2ccccc21 (stereo not shown) [Compound 22, 2-((5-nicotinoyl-5H-[1,2,4]triazino[5,6-b]indol-3-yl)thio)-1-(10H-phenothiazin-10-yl)butan-1-one]

EC90 (H460 cells [4]; [7]): 14.5 µM
EC50 (H460 cells [5]): 5.7 ± 0.3 µM
SMILES: C=CCCC(=O)n1c2ccccc2c2nnc(SC(CC)C(=O)N3c4ccccc4Sc4ccccc43)nc21 (stereo not shown) [Compound 24, 1-(3-((1-oxo-1-(10H-phenothiazin-10-yl)butan-2-yl)thio)-5H-[1,2, 4]triazino[5,6-b]indol-5-yl)pent-4-en-1-one]

EC90 (H460 cells [4]; [7]): 38.2 µM
EC50 (H460 cells [5]): 16 ± 0.9 µM
SMILES: CCC(Sc1nnc2c3ccccc3n(C(=O)CCCCBr)c2n1)C(=O)N1c2ccccc2Sc2ccccc21 (stereo not shown) [Compound 26, 5-bromo-1-(3-((1-oxo-1-(10H-phenothiazin-10-yl)butan-2-yl)thio)-5H-[1,2, 4]triazino[5,6-b]indol-5-yl)pentan-1-one]

EC90 (H460 cells [4]; [7]): 9 µM
EC50 (H460 cells [5]): 3.4 ± 0.3 µM
SMILES: CCOC(=O)CCCC(=O)n1c2ccccc2c2nnc(SC(CC)C(=O)N3c4ccccc4Sc4ccccc43)nc21 (stereo not shown) [Compound 27, Ethyl 5-oxo-5-(3-((1-oxo-1-(10H-phenothiazin-10-yl)butan-2-yl)thio)-5H-[1,2,4]triazino[5,6-b]indol-5-yl)pentanoate]

EC50 (HCT116^−/− cells [3]): 7.8 ± 3.4 µM
EC90 (H460 cells [4]; [7]): ~7.7 µM
EC90 fold lower than that for INZ, H460 (H460 cells [4]): 5 fold
EC50 (H460 cells [5]): 3.5 ± 0.4 µM
EC50 (H1299 cells): 16.6 µM
EC50 on H1299 fold higher than on H460 cells (H1299 cells): 3–15 fold
EC90 (HCT116^+/+ cells; [8]): 4.6 µM
EC50 (HCT116^+/+ cells; Homo sapiens): 800 ± 500 nM
EC90 fold lower than that for INZ, HCT116^+/+ (HCT116^+/+ cells): 5 fold
SMILES: CCC(Sc1nnc2c3ccccc3n(CCO)c2n1)C(=O)N1c2ccccc2Sc2ccccc21 (stereo not shown) [Compound 30, 2-((5(2-hydoxyethyl)-5H-[1,2,4]triazino[5,6-b]indol-5-yl)thiol)-1-(10H-phenothiazin-10-yl)butan-1-one]
effect on p53-null HCT116^−/− cells compared with p53-containing cells (HCT116^−/− cells [3]): much less effective
p53 induction / activation by synthetic analogs [1]: comparable to compound 8; also recorded: more potent in p53 activation than their parental compound INZ
effect on p53-null H1299 cells compared with p53-containing cells (H1299 cells): much less effective

The remaining lines, values behind:

SMILES: CCC(Sc1nnc2c(n1)[nH]c1ccccc12)C(=O)N1c2ccccc2Sc2ccc(Cl)cc21 (stereo not shown) [Compound 6, 2-((5H-[1,2,4]triazino[5,6-b]indol-3-yl)thio)-1-(2-chloro-10H-phenothiazin-10-yl)butan-1-one]
p53 induction / activation by synthetic analogs [1]: remained active in p53 induction
p53 induction in HCT116^+/+ cells [2]: < 50%
p53 induction in H460 cells (p53 level in H460 cells): < 50%

SMILES: CCC(Sc1nnc2c(n1)[nH]c1ccccc12)C(=O)N1c2ccccc2Cc2ccccc21 (stereo not shown) [Compound 8, 2-((5H-[1,2,4]triazino[5,6-b]indol-3-yl)thio)-1-(acridin-10(9H)-yl)butan-1-one]
EC50 (HCT116^−/− cells [3]): 5.9 ± 1 µM
effect on p53-null HCT116^−/− cells compared with p53-containing cells (HCT116^−/− cells [3]): much less effective
EC90 (H460 cells [4]; [7]): 3.5 to 10 µM
EC90 fold lower than that for INZ, H460 (H460 cells [4]): 3–10 fold
fold higher potency than INZ in growth inhibition of H460 cells (H460 cells [5]; EC50 compared with INZ): more than 2 fold
EC50 (H460 cells [5]): 2.7 µM
p53 induction / activation by synthetic analogs [1]: drastically induced p53 at 0.5 µM; also recorded: greater potentcy than compound 1; also recorded: more potent in p53 activation than their parental compound INZ
EC50 (H1299 cells): 10.4 µM
effect on p53-null H1299 cells compared with p53-containing cells (H1299 cells): much less effective
EC50 on H1299 fold higher than on H460 cells (H1299 cells): 3–15 fold
fold higher potency than INZ in growth inhibition of HCT116^+/+ cells (HCT116^+/+ cells; EC50 compared with INZ): more than 2 fold
EC50 (HCT116^+/+ cells; Homo sapiens): 1300 nM
EC90 fold lower than that for INZ, HCT116^+/+ (HCT116^+/+ cells): 3–10 fold

SMILES: CCC(Sc1nnc2c(n1)[nH]c1ccccc12)C(=O)N1c2ccccc2Oc2ccccc21 (stereo not shown) [Compound 9, 2-((5H-[1,2,4]triazino[5,6-b]indol-3-yl)thio)-1-(10H-phenoxazin-10-yl)butan-1-one]
p53 induction / activation by synthetic analogs [1]: inactive

SMILES: CCCCC(Sc1nnc2c(n1)[nH]c1ccccc12)C(=O)N1c2ccccc2Sc2ccccc21 (stereo not shown) [Compound 14, 2-((5H-[1,2,4]triazino[5,6-b]indol-3-yl)thio)-1-(10H-phenothiazin-10-yl)hexan-1-one]
p53 induction / activation by synthetic analogs [1]: lower activity for p53 induction

SMILES: CCC(Sc1nnc2c(n1)[nH]c1cc(F)ccc12)C(=O)N1c2ccccc2Sc2ccccc21 (stereo not shown) [Compound 15, 2-((7-fluoro-5H-[1,2,4]triazino[5,6-b]indol-3-yl)thio)-1-(10H-phenothiazin-10-yl)butan-1-one]
p53 induction / activation by synthetic analogs [1]: inactive

SMILES: CCC(Sc1nnc2c(n1)[nH]c1cc(OC)ccc12)C(=O)N1c2ccccc2Sc2ccccc21 (stereo not shown) [Compound 18, 2-((7-methoxy-5H-[1,2,4]triazino[5,6-b]indol-3-yl)thio)-1-(10H-phenothiazin-10-yl)butan-1-one]
p53 induction / activation by synthetic analogs [1]: marked decrease in p53 activation

SMILES: CCC(Sc1nnc2c(n1)[nH]c1cc(C)ccc12)C(=O)N1c2ccccc2Sc2ccccc21 (stereo not shown) [Compound 19, 2-((7-methyl-5H-[1,2,4]triazino[5,6-b]indol-3-yl)thio)-1-(10H-phenothiazin-10-yl)butan-1-one]
EC50 (HCT116^−/− cells [3]): 44.2 ± 10.3 µM
effect on p53-null HCT116^−/− cells compared with p53-containing cells (HCT116^−/− cells [3]): much less effective
EC90 (H460 cells [4]; [7]): 26.5 µM
EC90 (H460 cells [4]; calculated from EC50 and Hill slope (GraphPad web calculator)): 20 to 30 µM
EC90 fold lower than that for INZ, H460 (H460 cells [4]): 1.5 fold
EC50 (H460 cells [5]): 6 ± 0.6 µM
p53 induction / activation by synthetic analogs [1]: significant effect on p53 induction compared to INZ at 0.5 µM
EC90 (H1299 cells): 173 µM
EC50 (H1299 cells): 40.2 ± 7.4 µM
effect on p53-null H1299 cells compared with p53-containing cells (H1299 cells): much less effective
EC90 (HCT116^−/− cells [6]): > 1000 µM
EC90 (HCT116^+/+ cells; [8]): 29.7 µM
EC50 (HCT116^+/+ cells; Homo sapiens): 2200 ± 200 nM
EC90 (HCT116^+/+ cells; calculated from EC50 and Hill slope): 20 to 30 µM

SMILES: CCCCCC(=O)C1(SC(CC)C(=O)N2c3ccccc3Sc3ccccc32)N=c2[nH]c3ccccc3c2=NN1 (stereo not shown) [Compound 23, 1-(3-((1-oxo-1-(10H-phenothiazin-10-yl)butan-2-yl)thio)-5H-[1,2,4]triazino[5,6-b]indol-3-yl)hexan-1-one]
EC90 (H460 cells [4]; [7]): 22.6 µM
EC50 (H460 cells [5]): 6.7 ± 0.7 µM

SMILES: CCOC(=O)Cn1c2ccccc2c2nnc(SC(CC)C(=O)N3c4ccccc4Sc4ccccc43)nc21 (stereo not shown) [Compound 28, Ethyl 2-(3-((1-oxo-1-(10H-phenothiazin-10-yl)butan-2-yl)thio)-5H-[1,2,4]triazino[5,6-b]indol-5-yl)acetate]
p53 induction / activation by synthetic analogs [1]: essentially inactive

SMILES: CCC(Sc1nnc2c3ccccc3n(CC(=O)O)c2n1)C(=O)N1c2ccccc2Sc2ccccc21 (stereo not shown) [Compound 29, 2-(3-((1-oxo-1-(10H-phenothiazin-10-yl)butan-2-yl)thio)-5H-[1,2,4]triazino[5,6-b]indol-5-yl)acetic acid]
p53 induction / activation by synthetic analogs [1]: essentially inactive

SMILES: C#CCCn1c2ccccc2c2nnc(SC(CC)C(=O)N3c4ccccc4Sc4ccccc43)nc21 (stereo not shown) [Compound 32, 2-((5(but-3-yn-1-yl)-5H-[1,2,4]triazino[5,6-b]indol-3-yl)thiol)-1-(10H-phenothiazin-10-yl)butan-1-one]
p53 induction / activation by synthetic analogs [1]: significant decrease in activity

SMILES: CCC(Sc1nnc2c3ccccc3n(CC(=O)c3ccccc3)c2n1)C(=O)N1c2ccccc2Sc2ccccc21 (stereo not shown) [Compound 33, 2-((5-(2-oxo-2-phenylethyl)-5H-[1,2,4]triazino[5,6-b]indol-3-yl)thiol)-1-(10H-phenothiazin-10-yl)butan-1-one]
p53 induction / activation by synthetic analogs [1]: significant decrease in activity

SMILES: CCC(Sc1nnc2c(n1)[nH]c1ccccc12)C(=O)N1c2ccccc2Sc2ccccc21 (stereo not shown) [INZ, 2-((5H-[1,2,4]triazino[5,6-b]indole-3yl)thio)-1-(10H-phenothiazin-10-yl)butan-1-one]
EC50 (HCT116^−/− cells [3]): 13.3 ± 2.4 µM
EC90 (H460 cells [4]; [7]): 39.9 µM
EC50 (H460 cells [5]): 7.7 ± 1.1 µM
EC90 fold greater in p53-null cells than in p53-containing cell lines (H1299 cells; H1299, HCT116^−/− vs H460, HCT116^+/+): 5–7 fold
EC90 (H1299 cells): 217 µM
EC50 (H1299 cells): 11.6 ± 3.4 µM
EC90 (HCT116^−/− cells [6]): 213 µM
EC90 (HCT116^+/+ cells; [8]): 30.5 µM
EC50 (HCT116^+/+ cells; Homo sapiens): 2700 ± 300 nM
